Assay results: patent US8354388B2, “Inhibitors of MRP4 for the treatment of vascular disorders” (INSERM (Institut National de la Sante et de la Recherche …, priority 2007, dated 2013)
“Also recorded” adds a separate entry of the source. Where two headings read alike, the source gives them in different places.

Assays:
[1] = test system: human coronary artery smooth muscle cells (hCASMC); experiment: BrdU incorporation proliferation assay in hCASMC; details: for hCASMC proliferation, relative increase compared to 0.1% S: without inhibitors 240±15.8%; for dose-effect on hCASMC proliferation: increasing doses; for inhibitory effect on hCASMC proliferation under inhibition of PKA by Ad-PKI: infection with Ad-PKI
Procedure: Cell proliferation was measured 72 hours after plating by BrdU incorporation and expressed as relative increase compared to growth supplement starved (0.1% S) cells. […] (b) Dose-effect of MRP and PDE inhibitors (DIP: Dipyridamole, IBMX, MK571 and NBMPR) on hCASMC proliferation. n=3 experiments in triplicate. * p≦0.05, ** p≦0.01, *** p≦0.001
Human smooth muscle cells were cultured in 96-wells tissue culture plates for 3 days in Smooth Muscle Cell Basal Medium 2 supplemented with 5% S. Medium containing 0.1% S was used for the growth arrest control. Cells were incubated with pharmacological agents or siRNA for 72 h in medium containing 5% S. BrdU was added for the last 16 hours. The cell culture plates were washed, and a colorimetric BrdU cell proliferation assay was performed according to the manufacturer's instructions (Roche).

[2] = target: T1, MRP4 (Homo sapiens, UniProt O15439); details: literature reference 41; cited from earlier work
T1 sequence (O15439 1-1325): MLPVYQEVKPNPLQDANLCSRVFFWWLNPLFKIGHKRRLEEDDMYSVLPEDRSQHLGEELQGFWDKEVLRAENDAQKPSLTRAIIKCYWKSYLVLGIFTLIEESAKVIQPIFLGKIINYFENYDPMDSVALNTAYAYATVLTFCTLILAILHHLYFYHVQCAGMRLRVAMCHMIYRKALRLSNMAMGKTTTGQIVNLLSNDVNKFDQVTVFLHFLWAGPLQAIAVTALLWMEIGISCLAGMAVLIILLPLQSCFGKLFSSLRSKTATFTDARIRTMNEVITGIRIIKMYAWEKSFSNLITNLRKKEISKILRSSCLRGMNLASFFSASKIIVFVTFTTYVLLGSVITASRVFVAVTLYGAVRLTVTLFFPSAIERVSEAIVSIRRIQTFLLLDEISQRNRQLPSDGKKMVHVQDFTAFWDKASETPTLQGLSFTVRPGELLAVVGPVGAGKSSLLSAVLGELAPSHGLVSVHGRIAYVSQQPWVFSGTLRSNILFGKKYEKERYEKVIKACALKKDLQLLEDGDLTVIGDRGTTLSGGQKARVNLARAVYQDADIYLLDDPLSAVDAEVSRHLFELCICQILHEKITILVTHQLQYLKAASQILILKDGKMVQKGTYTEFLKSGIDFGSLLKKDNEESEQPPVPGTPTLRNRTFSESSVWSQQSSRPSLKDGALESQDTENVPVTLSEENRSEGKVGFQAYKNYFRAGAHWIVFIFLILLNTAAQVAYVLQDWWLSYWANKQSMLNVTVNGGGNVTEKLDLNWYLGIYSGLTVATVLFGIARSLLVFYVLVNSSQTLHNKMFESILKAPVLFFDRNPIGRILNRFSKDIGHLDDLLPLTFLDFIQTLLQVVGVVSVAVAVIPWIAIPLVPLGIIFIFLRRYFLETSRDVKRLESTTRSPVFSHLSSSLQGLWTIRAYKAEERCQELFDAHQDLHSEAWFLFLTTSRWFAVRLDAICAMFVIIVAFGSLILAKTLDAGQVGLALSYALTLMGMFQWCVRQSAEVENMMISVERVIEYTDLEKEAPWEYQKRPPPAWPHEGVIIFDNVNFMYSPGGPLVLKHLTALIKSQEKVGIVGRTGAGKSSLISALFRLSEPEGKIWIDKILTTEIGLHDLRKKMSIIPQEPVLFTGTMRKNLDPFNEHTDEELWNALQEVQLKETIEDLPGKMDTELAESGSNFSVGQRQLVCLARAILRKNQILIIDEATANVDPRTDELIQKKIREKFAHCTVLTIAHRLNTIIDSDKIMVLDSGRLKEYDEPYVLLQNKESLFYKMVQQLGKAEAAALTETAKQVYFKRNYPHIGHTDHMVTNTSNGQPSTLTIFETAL

[3] = test system: intracellular cAMP in hCASMC; experiment: FRET imaging of cAMP with Epac2-camps in hCASMC; type: cell-based; details: Homo sapiens, read-out: EC50, dose providing 50% of maximal cAMP formation
Procedure: hCASMCs were transfected with scramble siRNA or the siRNA against MRP4 (each at 50 nM) in supplement-free medium over a period of 6 h, before the medium was replaced with supplement-containing medium. 24 h after the transfection, cells were infected with an adenovirus encoding the FRET-based cAMP sensor Epac2-camps. This FRET-based cAMP sensor contains a single cAMP binding domain of Epac2 fused to YFP and CFP fluorescent proteins. Upon addition of forskolin, increasing intra-cellular cAMP concentrations lead to a reversible conformational change of Epac2-camps which results in a decrease of FRET between CFP and YFP, leading to an increase in the CFP/YFP ratio^13. Imaging experiments were performed at 72 h and at room temperature. Cells were maintained in a K^+-Ringer solution containing (in mmol/L): NaCl 121.6, KCl 5.4, MgCl2 1.8; CaCl2 1.8; NaHCO3 4, NaH2PO4 0.8, D-glucose 5, sodium pyruvate 5, HEPES 10, adjusted to pH 7.4. Images were captured every 5 s using the 40× oil immersion objective of a Nikon TE 300 inverted microscope connected to a software-controlled (Metafluor, Molecular Devices, Sunnyvale, Calif., USA) cooled charge coupled (CCD) camera (Sensicam PE; PCO, Kelheim, Germany). […] Average fluorescence intensity was measured in a region of interest comprising the entire cell. […]
All quantitative data are presented as means ±SD. […]

[4] = test system: human MRP4; experiment: MRP4 silencing in hCASMC (quantitative real-time PCR, western blot); type: cell-based; details: siRNA 50 nM, 72 hours after transfection
Procedure: Total RNA was prepared using RNeasy Mini Kit […] and 1 μg was reverse-transcribed using a standard protocol. One tenth of the resulting cDNA was amplified by 35 cycles of 30 s at 94° C., 30 s at Tm (60° C. for MRP4, MRP5 and RPL32) and 30 s at 72° C., followed by a final amplification at 72° C. for 10 min using 1 unit of BIOTAQ DNA Polymerase (Bioline) and 200 pmol each of the following primers: […]
Gene specific primers were used to amplify mRNA by qPCR on a Mx4000 apparatus (Stratagene) using the Qiagen SYBR Green master mix. The specificity of each primer set was monitored by analysis of the dissociation curve. A sample volume of 25 μl was used for each assay, which contained a 1× final concentration of SYBR green PCR master mix, 400 nM gene specific primers, and 5 μl template.
Total cell lysates were prepared according to standard protocol (Upstate Biotechnology). […] Optical Density was quantified using ImageJ software (National Institutes of Health, Bethesda, Md.). […]

[5] = test system: cyclic nucleotide efflux from hCASMCs; experiment: cAMP and cGMP competitive enzyme immunoassay, intra-/extra-cellular ratio in hCASMC; type: cell-based, human; details: hCASMC transfected 72 h
Procedure: Cyclic GMP and AMP were measured in cell culture supernates and in cell lysates in hCASMC transfected for 72 h either with the scramble siRNA or the MRP4 siRNA by specific competitive enzyme immunoassay as described by the manufacturer (R&D systems).

[6] = test system: phosphorylated CREB (pCREB); experiment: Phosphorylated CREB western blot in proliferating hCASMC; type: cell-based, human; details: p=0.003
Procedure: Total cell lysates were prepared according to standard protocol (Upstate Biotechnology). Membrane proteins were isolated by scraping the cells in buffer A (5 mmol/L Tris/HCl, 250 mmol/L sucrose, and 0.1 mmol/L ethylenediaminetetraacetic acid supplemented with protease inhibitors cocktail (Sigma). The lysate was centrifuged at 10000 g for 10 min at 4° C. and the supernatant further centrifuged at 100000 g for 1 h at 4° C. The resulting pellet was resuspended in buffer A. Proteins (50 μg) were separated by SDS 12% PAGE, blotted on Hybond-C membrane (Amersham Biosciences) and incubated with various antibodies. The anti-MRP4 antibody was previously described^17. Other antibodies were: anti-MRP5 antibody (1:250; Santa-Cruz Biotechnology), anti-Caveolin1 (1:5000, Abcam), anti-cyclinD1 (1:500, BD Biosciences), anti-PP2B (calcineurin) (1:250; BD Biosciences), anti-CREB (1:1000; Upstate Biotechnology), anti-phosphorylated CREB (1:1000; Upstate Biotechnology). Immunoreactive proteins were visualized using an ECL® (enhanced chemiluminescence) detection system (Amersham Biosciences). Optical Density was quantified using ImageJ software (National Institutes of Health, Bethesda, Md.). […]

[7] = test system: cAMP responsive element CRE; experiment: CRE-luciferase reporter gene assay in hCASMC; type: cell-based, human; details: 5% S, percent of control
Procedure: Cells were co-transfected with the siRNA (50 nM) and the CRE-luciferase reporter gene plasmid (Stratagene) by electroporation using amaxa® Nucleofector technology according to manufacturer's instructions. After, a period of 6 h, the medium was replaced with supplement containing medium. Cells were grown in the presence of 5% S for 66 h. The results are means for three independent experiments performed in triplicate. The luciferase activity was measured by using “the luciferase assay kit” (Promega). It was expressed as percent of control in relative luciferase units.

[8] = test system: hCASMC; experiment: TUNEL staining for apoptosis in hCASMC; type: cell-based, human; details: siRNA transfected 72 h
Procedure: MRP4 or scramble siRNA were transfected in hCASMC for 72 h and the apoptosis was analyzed by TUNEL staining (ApopTag Red, Serologicals Corp). For the positive control, cells were treated with staurosporin (10 μM) for 1 h.

[9] = test system: human pulmonary artery smooth muscle cells (hPASMC); experiment: BrdU incorporation proliferation assay in hPASMC; type: cell-based
Source text: FIG. 10. Inhibition of hPASMC (human pulmonary artery smooth musclulare cells) proliferation with MRP4 siRNA.

[10] = 5% S, 72 h, maximal dose used (MK571 37.5 μM, NBMPR 100 μM)

Q: Which “hCASMC proliferation, relative increase compared to 0.1% S” value ([1]; 5% S, 72 h, IBMX 100 μM) does the source give for `CC(C)Cn1c(=O)n(C)c(=O)c2[nH]cnc21` [IBMX] here?
A: 170±12%

Q: And the “dose-effect on hCASMC proliferation” value ([1]; 5% S, 72 h)?
A: dose-dependent inhibition

Q: With `CN(C)C(=O)CCSC(SCCC(=O)O)c1cccc(/C=C/c2ccc3ccc(Cl)cc3n2)c1` (stereo not drawn) [MK571] as the compound, how does the “dose-effect on hCASMC proliferation” value ([1]; 5% S, 72 h) read?
A: dose-dependent inhibition

Q: What about the “hCASMC proliferation, relative increase compared to 0.1% S” value [1, 10] of the same compound?
A: 153±11%

Q: And the “inhibitory effect on hCASMC proliferation under inhibition of PKA by Ad-PKI” value (“inhibitory effect … by Ad-PKI” for short) ([1]; MK571 37.5 μM, NMBPR 100 μM)?
A: also reversed

Q: With `O=[N+]([O-])c1ccc(CSc2ncnc3c2ncn3[C@@H]2O[C@H](CO)[C@@H](O)[C@H]2O)cc1` [NBMPR] as the compound, how does the “dose-effect on hCASMC proliferation” value ([1]; 5% S, 72 h) read?
A: dose-dependent inhibition

Q: What about the “hCASMC proliferation, relative increase compared to 0.1% S” value [1, 10] of the same compound?
A: 140±15%

Q: And the “inhibitory effect … by Ad-PKI” value ([1]; MK571 37.5 μM, NMBPR 100 μM)?
A: also reversed

Q: Which “reported MRP4 inhibition” value [2] does the source give for `CCCc1nn(C)c2c(=O)[nH]c(-c3cc(S(=O)(=O)N4CCN(C)CC4)ccc3OCC)nc12` [Sildenafil] here?
A: MRP4 inhibitor

Q: Which results are given for `OCCN(CCO)c1nc(N2CCCCC2)c2nc(N(CCO)CCO)nc(N3CCCCC3)c2n1` [dipyridamole]?
A: reduction of hCASMC proliferation compared to MK571 or NBMPR ([1]; 5% S, 72 h): no significant difference; dose-effect on hCASMC proliferation ([1]; 5% S, 72 h): dose-dependent inhibition

Q: Which EC50 ([3]; MRP4 siRNA transfected hCASMC) does the source give for `C=C[C@@]1(C)CC(=O)[C@]2(O)[C@@]3(C)[C@@H](O)CCC(C)(C)[C@@H]3[C@H](O)[C@H](OC(C)=O)[C@@]2(C)O1` [forskolin] here?
A: 3 ± 0.6 µM

Q: And the EC50 ([3]; scramble siRNA transfected hCASMC)?
A: 13.3 ± 2.2 µM

Q: For “MRP4 siRNA: siRNA against human MRP4, sense 5′-CAGUGUUCUUACACUUCCUTT-3′ (SEQ ID NO:7), anti-sense 5′-AGGAAGUGUAAGAACACUGTT-3′ (SEQ ID NO:8) (chemistry not given here)”, which “decrease in MRP4 mRNA compared to scramble siRNA” value [4] is on record?
A: 75±1%

Q: And the “decrease in MRP4 protein level compared to scramble siRNA” value ([4]; western blot)?
A: 74±6.8%

Q: And the “cAMP intra-cellular/extra-cellular ratio compared to scramble siRNA” value [5]?
A: 289±12.5%

Q: What about the “cGMP intra-cellular/extra-cellular ratio compared to scramble siRNA” value [5] of the same compound?
A: 230±5.5%

Q: What about the “increase in level of pCREB compared to scramble siRNA” value [6] of the same compound?
A: 329±15%

Q: And the “CRE-luciferase activity compared to scramble siRNA” value [7]?
A: 553±25%

Q: And the “apoptosis in hCASMC” value [8]?
A: not associated with apoptosis

Q: What about the “hPASMC proliferation compared to scrambled siRNA” value [9] of the same compound?
A: significant decrease; also recorded: inhibits

Q: And the “inhibitory effect on hCASMC proliferation under inhibition of PKG by KT5823” value ([1]; KT5823, MK571 37.5 μM, NMBPR 100 μM)?
A: not by the inhibition of cGMP-dependent protein kinase G

Q: What about the “inhibitory effect … by Ad-PKI” value ([1]; MK571 37.5 μM, NMBPR 100 μM) of the same compound?
A: completely reversed

Q: And the “supplement mix-induced hCASMC proliferation, relative increase compared to 0.1% S” value ([1]; siRNA 50 nM, 72 h, 5% S, scramble siRNA 313±35%)?
A: 183±27%
